Assay results: ChEMBL document CHEMBL1147394, “Zaragozic acids D and D2: potent inhibitors of squalene synthase and of Ras farnesyl-protein transferase” (J Nat Prod, 1993)

Tests used:
[1] = Inhibition of bovine Ras FPTase; parameters: species or system Bos taurus
Squalene synthase = molecular target: T1, Squalene synthase (Rattus norvegicus, UniProt Q02769); assay: Inhibition of rat liver squalene synthase by liqiud scintillation counting
T1 sequence (Q02769 whole entry): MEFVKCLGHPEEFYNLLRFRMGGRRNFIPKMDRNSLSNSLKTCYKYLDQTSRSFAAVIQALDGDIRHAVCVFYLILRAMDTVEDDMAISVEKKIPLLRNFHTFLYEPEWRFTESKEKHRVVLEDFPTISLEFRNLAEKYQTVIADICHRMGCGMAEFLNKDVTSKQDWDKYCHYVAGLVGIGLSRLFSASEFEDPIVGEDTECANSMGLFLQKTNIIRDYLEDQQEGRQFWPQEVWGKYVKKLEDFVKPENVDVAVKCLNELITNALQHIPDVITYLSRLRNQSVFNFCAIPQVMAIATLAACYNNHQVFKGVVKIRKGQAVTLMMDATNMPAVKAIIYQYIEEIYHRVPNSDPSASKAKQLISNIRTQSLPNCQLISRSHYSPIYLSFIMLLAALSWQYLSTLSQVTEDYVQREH

For CCCCCCCCCC(=O)O[C@@H]1[C@@H](O)[C@@]2(CCCC(OC(C)=O)C(C)C/C=C/c3ccccc3)O[C@H](C(=O)O)[C@@](O)(C(=O)O)[C@]1(C(=O)O)O2 (some centres undefined) [ZARAGOZIC ACID D2], the IC50 [1] was 100 nM and the IC50 (Squalene synthase) was 2 nM.

CCCCCCCC(=O)O[C@@H]1[C@@H](O)[C@@]2(CCCC(OC(C)=O)C(C)C/C=C/c3ccccc3)O[C@H](C(=O)O)[C@@](O)(C(=O)O)[C@]1(C(=O)O)O2 (some centres undefined) [ZARAGOZIC ACID D] gave an IC50 [1] of 100 nM and an IC50 (Squalene synthase) of 6 nM.

With C/C=C/CCCC/C=C/CCCCC(=O)O[C@@H]1[C@@H](O)[C@@]2(CCC(C)C(O)C(C)C/C=C/c3ccccc3)O[C@H](C(=O)O)[C@@](O)(C(=O)O)[C@]1(C(=O)O)O2 (some centres undefined) [ZARAGOZIC ACID B] the IC50 [1] was 1000 nM and the IC50 (Squalene synthase) was 0.2 nM.

C=C(CC[C@]12O[C@H](C(=O)O)[C@@](O)(C(=O)O)[C@](C(=O)O)(O1)[C@H](OC(=O)/C=C/[C@@H](C)C[C@@H](C)CC)[C@H]2O)[C@@H](OC(C)=O)[C@H](C)Cc1ccccc1 [ZARAGOZIC ACIDS A] gave an IC50 [1] of 250 nM.

In the case of CC(=O)O[C@H](CCC[C@]12O[C@H](C(=O)O)[C@@](O)(C(=O)O)[C@](C(=O)O)(O1)[C@H](OC(=O)CC/C=C/[C@H](C)CCCc1ccccc1)[C@H]2O)[C@H](C)Cc1ccccc1 [ZARAGOZIC ACID C], the IC50 [1] is reported as 150 nM and the IC50 (Squalene synthase) is reported as 0.4 nM.
